# Experimental data: US10336762B2 (priority 2017, dated 2019)
# How the values were obtained:
# TNFα = assay: cells; type: cell-based, human; details: Homo sapiens, Monocyte, LPS-stimulated human monocytes, TNFα by TR-FRET; read-out: EC50 TNF
# IRAK4 enzyme = IRAK4 enzyme (Homo sapiens (Human), UniProt Q9NWZ3); assay: biochemical; type: biochemical; details: IRAK4 enzyme, TR-FRET, 500 μM ATP
# Chain of IRAK4 enzyme (Q9NWZ3 whole entry): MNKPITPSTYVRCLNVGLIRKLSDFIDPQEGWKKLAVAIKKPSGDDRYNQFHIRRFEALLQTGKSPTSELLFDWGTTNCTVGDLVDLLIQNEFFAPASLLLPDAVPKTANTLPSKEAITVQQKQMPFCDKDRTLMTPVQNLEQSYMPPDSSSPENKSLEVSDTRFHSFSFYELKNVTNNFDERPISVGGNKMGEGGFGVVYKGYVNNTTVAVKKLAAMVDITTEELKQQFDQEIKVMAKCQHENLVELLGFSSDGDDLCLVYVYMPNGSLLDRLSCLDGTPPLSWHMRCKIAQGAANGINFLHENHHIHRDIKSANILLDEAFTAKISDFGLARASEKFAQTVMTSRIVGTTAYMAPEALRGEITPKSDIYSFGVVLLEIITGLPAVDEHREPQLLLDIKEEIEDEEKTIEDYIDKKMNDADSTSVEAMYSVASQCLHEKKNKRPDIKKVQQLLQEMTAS
SMILES,EC50 (TNFα) [nM],IC50 (IRAK4 enzyme) [nM]
"CN1CCN(C(=O)[C@H](F)CNC(=O)c2cnc(-c3ccc4cc(C#N)cnn34)cc2NC23CCC(O)(CC2)CC3)CC1 [Example 948, (R)-6-(3-cyanopyrrolo[1,2-b]pyridazin-7-yl)-N-(2-fluoro-3-(4-methylpiperazin-1-yl)-3-oxopropyl)-4-((4-hydroxybicyclo[2.2.2]octan-1-yl)amino) nicotinamide]",282,3
"COC(=O)C1(NC(=O)c2cnc(-c3ccc4cc(C#N)cnn34)cc2NC23CCC(O)(CC2)CC3)CC1 [Example 949, methyl 1-(6-(3-cyano-pyrrolo[1,2-b]pyridazin-7-yl)-4-((4-hydroxy-bicyclo[2.2.2]octan-1-yl)amino)nicotinamido) cyclopropane-1-carboxylate]",62,1
"CC1(NC(=O)c2cnc(-c3ccc4cc(C#N)cnn34)cc2NC23CCC(O)(CC2)CC3)CC1 [Example 950, 6-(3-cyanopyrrolo[1,2-b]pyridazin-7-yl)-4-((4-hydroxybicyclo[2.2.2]octan-1-yl)amino)-N-(1-methylcyclopropyl) nicotinamide]",70,1
"N#Cc1cnn2c(-c3cc(NC45CCC(O)(CC4)CC5)c(C(=O)NC4(C(F)F)CC4)cn3)ccc2c1 [Example 951, 6-(3-cyanopyrrolo[1,2-b]pyridazin-7-yl)-N-(1-(difluoromethyl)cyclopropyl)-4-((4-hydroxybicyclo[2.2.2]octan-1-yl)amino) nicotinamide]",159,2
"COC(=O)NC[C@H]1C[C@H](Nc2cc(-c3ccc4cc(C#N)cnn34)ncc2C(=O)NCC(=O)N2CC(F)(F)C2)C1 [Example 952, methyl (((1r,3r)-3-((2-(3-cyanopyrrolo[1,2-b]pyridazin-7-yl)-5-((2-(3,3-difluoroazetidin-1-yl)-2-oxoethyl)carbamoyl)pyridin-4-yl)amino)cyclo-butyl)methyl)carbamate]",62,< 1
"N#Cc1cnn2c(-c3cc(NC45CCC(O)(CC4)CC5)c(C(=O)NCC(=O)N4CC[C@@H](O)C4)cn3)ccc2c1 [Example 953, (R)-6-(3-cyanopyrrolo[1,2-b]pyridazin-7-yl)-4-((4-hydroxybicyclo[2.2.2]octan-1-yl)amino)-N-(2-(3-hydroxypyrrolidin-1-yl)-2-oxoethyl) nicotinamide]",240,< 1
"CC1(O)CN(C(=O)CNC(=O)c2cnc(-c3ccc4cc(C#N)cnn34)cc2NC23CCC(O)(CC2)CC3)C1 [Example 954, 6-(3-cyanopyrrolo[1,2-b]pyridazin-7-yl)-N-(2-(3-hydroxy-3-methylazetidin-1-yl)-2-oxoethyl)-4-((4-hydroxybicyclo[2.2.2]octan-1-yl)amino) nicotinamide]",213,< 1
"N#Cc1cnn2c(-c3cc(NC45CCC(O)(CC4)CC5)c(C(=O)N[C@H]4CNC4=O)cn3)ccc2c1 [Example 955, (S)-6-(3-cyanopyrrolo[1,2-b]pyridazin-7-yl)-4-((4-hydroxybicyclo[2.2.2]octan-1-yl)amino)-N-(2-oxo-azetidin-3-yl)nicotinamide]",399,< 1
"CC(C)(O)[C@H](F)CNC(=O)c1cnc(-c2ccc3cc(C#N)cnn23)cc1Nc1ccc(-c2cn[nH]c2)cn1 [Example 956, (R)-4-((5-(1H-pyrazol-4-yl)pyridin-2-yl)amino)-6-(3-cyanopyrrolo[1,2-b]pyridazin-7-yl)-N-(2-fluoro-3-hydroxy-3-methyl-butyl)nicotinamide]",31,< 1
"N#Cc1cnn2c(-c3cc(NC45CCC(O)(CC4)CC5)c(C(=O)N[C@H]4CCCNC4=O)cn3)ccc2c1 [Example 957, (S)-6-(3-cyanopyrrolo[1,2-b]pyridazin-7-yl)-4-((4-hydroxybicyclo[2.2.2]octan-1-yl)amino)-N-(2-oxo-piperidin-3-yl)nicotinamide]",173,< 1
"N#Cc1cnn2c(-c3cc(NC45CCC(O)(CC4)CC5)c(C(=O)N[C@@H]4CCCNC4=O)cn3)ccc2c1 [Example 958, (R)-6-(3-cyanopyrrolo[1,2-b]pyridazin-7-yl)-4-((4-hydroxybicyclo[2.2.2]octan-1-yl)amino)-N-(2-oxo-piperidin-3-yl)nicotinamide]",219,1
"N#Cc1cnn2c(-c3cc(NC45CCC(O)(CC4)CC5)c(C(=O)N[C@@H]4CCNC4=O)cn3)ccc2c1 [Example 959, (R)-6-(3-cyanopyrrolo[1,2-b]pyridazin-7-yl)-4-((4-hydroxybicyclo[2.2.2]octan-1-yl)amino)-N-(2-oxo-pyrrolidin-3-yl)nicotinamide]",206,< 1
"N#Cc1cnn2c(-c3cc(NC45CCC(O)(CC4)CC5)c(C(=O)N[C@H]4CCNC4=O)cn3)ccc2c1 [Example 960, (S)-6-(3-cyanopyrrolo[1,2-b]pyridazin-7-yl)-4-((4-hydroxybicyclo[2.2.2]octan-1-yl)amino)-N-(2-oxo-pyrrolidin-3-yl)nicotinamide]",316,1
"N#Cc1cnn2c(-c3cc(NC45CCC(O)(CC4)CC5)c(C(=O)NCC(F)(F)C(=O)N4CC(F)(F)C4)cn3)ccc2c1 [Example 961, 6-(3-cyanopyrrolo[1,2-b]pyridazin-7-yl)-N-(3-(3,3-difluoroazetidin-1-yl)-2,2-difluoro-3-oxopropyl)-4-((4-hydroxybicyclo[2.2.2]octan-1-yl)amino)nicotinamide]",382,2
"CN(C)C(=O)C(F)(F)CNC(=O)c1cnc(-c2ccc3cc(C(N)=O)cnn23)cc1NC12CCC(O)(CC1)CC2 [Example 962, 7-(5-((3-(dimethylamino)-2,2-difluoro-3-oxopropyl)carbamoyl)-4-((4-hydroxybicyclo[2.2.2]octan-1-yl)amino)pyridin-2-yl)pyrrolo[1,2-b]pyridazine-3-carboxamide]",> 10000,650
"NC(=O)c1cnn2c(-c3cc(NC45CCC(O)(CC4)CC5)c(C(=O)NCC(F)(F)C(=O)N4CC(F)(F)C4)cn3)ccc2c1 [Example 963, 7-(5-((3-(3,3-difluoro-azetidin-1-yl)-2,2-difluoro-3-oxopropyl)carbamoyl)-4-((4-hydroxybicyclo[2.2.2]octan-1-yl)amino)pyridin-2-yl)pyrrolo[1,2-b]pyridazine-3-carboxamide]",> 10000,394
"N#Cc1cnn2c(-c3cc(NC45CCC(O)(CC4)CC5)c(C(=O)NC4(CF)CC4)cn3)ccc2c1 [Example 964, 6-(3-cyanopyrrolo[1,2-b]pyridazin-7-yl)-N-(1-(fluoromethyl)cyclo-propyl)-4-((4-hydroxy-bicyclo[2.2.2]octan-1-yl)amino)nicotinamide]",68,1
"CC(C)(O)[C@H](F)CNC(=O)c1cnc(-c2ccc3cc(C#N)cnn23)cc1Nc1ccc(Cl)nc1 [Example 965, (R)-4-((6-chloropyridin-3-yl)amino)-6-(3-cyanopyrrolo[1,2-b]pyridazin-7-yl)-N-(2-fluoro-3-hydroxy-3-methylbutyl)nicotinamide]",26,< 1
"CC(C)(O)[C@H](F)CNC(=O)c1cnc(-c2ccc3cc(C#N)cnn23)cc1Nc1cnc(-c2ccc3cc(C#N)cnn23)nc1 [Example 966, (R)-6-(3-cyanopyrrolo[1,2-b]pyridazin-7-yl)-4-((2-(3-cyanopyrrolo[1,2-b]pyridazin-7-yl)pyrimidin-5-yl)amino)-N-(2-fluoro-3-hydroxy-3-methylbutyl) nicotinamide]",> 10000,2
"CC(C)(O)[C@H](F)CNC(=O)c1cnc(-c2ccc3cc(C#N)cnn23)cc1Nc1ccc(-c2cnoc2)nc1 [Example 967, (R)-6-(3-cyanopyrrolo[1,2-b]pyridazin-7-yl)-N-(2-fluoro-3-hydroxy-3-methylbutyl)-4-((6-(isoxazol-4-yl)pyridin-3-yl)amino) nicotinamide]",156,3
"Cc1nc(-c2ccc(Nc3cc(-c4ccc5cc(C#N)cnn45)ncc3C(=O)NC[C@@H](F)C(C)(C)O)cc2)no1 [Example 968, (R)-6-(3-cyanopyrrolo[1,2-b]pyridazin-7-yl)-N-(2-fluoro-3-hydroxy-3-methylbutyl)-4-((4-(5-methyl-1,2,4-oxadiazol-3-yl)phenyl)amino) nicotinamide]",81,1
"CC(C)(O)[C@H](F)CNC(=O)c1cnc(-c2ccc3cc(C#N)cnn23)cc1Nc1cnc(Cl)cn1 [Example 970, (R)-4-((5-chloropyrazin-2-yl)amino)-6-(3-cyano-pyrrolo[1,2-b]pyridazin-7-yl)-N-(2-fluoro-3-hydroxy-3-methylbutyl)nicotinamide]",57,< 1
"CC(C)(O)[C@H](F)CNC(=O)c1cnc(-c2ccc3cc(C#N)cnn23)cc1Nc1cnc(Cl)nc1 [Example 971, (R)-4-((2-chloropyrimidin-5-yl)amino)-6-(3-cyano-pyrrolo[1,2-b]pyridazin-7-yl)-N-(2-fluoro-3-hydroxy-3-methylbutyl)nicotinamide]",74,< 1
"CC(C)(O)[C@H](F)CNC(=O)c1cnc(-c2ccc3cc(C#N)cnn23)cc1Nc1cnc(-c2cn[nH]c2)cn1 [Example 972, (R)-4-((5-(1H-pyrazol-4-yl)pyrazin-2-yl)amino)-6-(3-cyanopyrrolo[1,2-b]pyridazin-7-yl)-N-(2-fluoro-3-hydroxy-3-methylbutyl)nicotinamide]",12,< 1
"CC(C)(O)[C@H](F)CNC(=O)c1cnc(-c2ccc3cc(C#N)cnn23)cc1Nc1ccc2nncn2c1 [Example 973, (R)-4-([1,2,4]triazolo[4,3-a]pyridin-6-ylamino)-6-(3-cyanopyrrolo[1,2-b]pyridazin-7-yl)-N-(2-fluoro-3-hydroxy-3-methylbutyl)nicotinamide]",1910,2
"CC(C)(O)[C@H](F)CNC(=O)c1cnc(-c2ccc3cc(C#N)cnn23)cc1Nc1ccc2nccn2c1 [Example 974, (R)-6-(3-cyanopyrrolo[1,2-b]pyridazin-7-yl)-N-(2-fluoro-3-hydroxy-3-methylbutyl)-4-(imidazo[1,2-a]pyridin-6-ylamino)nicotinamide]",112,1
